Experimental data as given in US8980792B2, “Compositions comprising abscisic acid and a fungicidally active compound” (Syngenta Participations AG, priority 2010, dated 2015).

Tested on: Mycosphaerella graminicola (Septoria tritici)
Experiment: Septoria tritici leaf spot on wheat, preventative foliar spray test
Type: in vivo
Source text: Mycosphaerella graminicola (Septoria tritici)/Wheat/Preventative (Septoria tritici Leaf Spot on Wheat)
The isopyrazam is formulated as an emulsion concentrate formulation and mixed with water to form a stock solution and ultrasonically agitated in order to achieve homogeneous distribution. Spray solutions are made up from the stock solution by dilution in water/isopropanol (10% isopropanol v/v), with abscisic acid added where needed as a tank mix to the diluted stock solution, and mechanically stirred just before spraying. Foliar application is at 200 L/ha using an application device spraying with a single nozzle (Lechler type) 60 cm above the plants. Typically two-week old wheat plants cv. Riband are sprayed with the spray solution in the spray chamber of the application device. The test plants are inoculated by spraying a spore suspension on them one day after application. After an incubation period of 1 day at typically 22° C./21° C. (day/night) and 95% rh, the inoculated test plants are kept at typically 22° C./21° C. (day/night) and 70% rh in a greenhouse. Percentage efficacy is assessed by direct visual comparison to untreated check plants when an appropriate level of disease appears on the untreated checks (typically 14-19 days after application).

| Compound | % Disease Control (isopyrazam 2.44 mg/ml alone) | % Disease Control (isopyrazam 9.77 mg/ml alone) | % Disease Control (isopyrazam 39.06 mg/ml alone) | % Disease Control (isopyrazam 156.25 mg/ml alone) | % Disease Control (isopyrazam 625.00 mg/ml alone) | % Disease Control (abscisic acid 0.0025 % w/v alone, foliar spray 200 L/ha, wheat) | % Disease Control (abscisic acid 0.0238 % w/v alone, foliar spray 200 L/ha, wheat) |
| --- | --- | --- | --- | --- | --- | --- | --- |
| CC(C)C1C2CCC1c1c(NC(=O)c3cn(C)nc3C(F)F)cccc12 (stereo not shown) [Isopyrazam] | 3% | 10% | 50% | 67% | 80% | – | – |
| CC1=CC(=O)CC(C)(C)[C@@]1(O)/C=C/C(C)=C\C(=O)O [Abscisic acid] | – | – | – | – | – | 0% | 0% |
